Measurements taken from US20130029928A1 (priority 2010, published 2013).
Like-named read-outs stand apart in the source and are kept apart here.

Test: Phase I study CXR1002-001: plasma pharmacokinetics (LC-MS/MS)
Assay type: in vivo, human
Conditions: human, plasma, oral; for concentration at 168 h: 168 hr (Day 8)
From the text: PK samples, PD (fasting) samples, blood glucose, and blood triglyceride samples, were taken over a 6-week period.
Dose limiting toxicity (DLT) will be based on the toxicity assessments over the first 3-week period of the repeat dosing schedule. PK samples (single blood sample) were taken on the following basis: • Every 6 weeks during the repeat dosing phase • If dosing is interrupted or stopped, samples will be taken at intervals according to patient convenience • PK sampling for safety evaluation may take place at any time, as clinically indicated
Plasma samples were collected after the single 50 mg dose at the following timepoints: Pre-dose, and then 0.25, 0.5, 0.75, 1, 1.5, 2, 3, 4, 6, 24, 48, and 72 hours after administration and then once weekly at weeks 2, 3, 4, 5, and 6 (days 8, 15, 22, 29, and 36). For patients treated with the weekly repeat dose, plasma samples were collected at the following timepoints: Pre-dose and then 2, 3, 4 and 24 hours after administration for a total of 6 weeks. Thereafter a single sample was collected every 6 weeks for monitoring of exposure during long term treatment. Plasma samples were processed at site and stored at −80° C. prior to batch shipment to the analytical laboratory.

[1] = 50 mg, Patient 004 Dose 50 mg, read-out: Concentration
[2] = 100 mg, Patient 005 Dose 100 mg, read-out: Concentration

SMILES: O=C(O)C(F)(F)C(F)(F)C(F)(F)C(F)(F)C(F)(F)C(F)(F)C(F)(F)F [CXR1002]
- concentration at 0.5 h (50 mg, Patient 003 Dose 50 mg, 0.5 hr): 11.3 µM
- concentration at 0.75 h (50 mg, Patient 003 Dose 50 mg, 0.75 hr): 17.1 µM
- concentration at 1 h (50 mg, Patient 003 Dose 50 mg, 1 hr): 20.7 µM
- concentration at 1.5 h (50 mg, Patient 003 Dose 50 mg, 1.5 hr): 24.6 µM
- concentration at 2 h (50 mg, Patient 003 Dose 50 mg, 2 hr, read-out: Concentration): 24.5 µM
- concentration at 3 h (50 mg, Patient 003 Dose 50 mg, read-out: Concentration): 21.2 µM
- concentration at 4 h (50 mg, Patient 003 Dose 50 mg, 4 hr, read-out: Concentration): 18 µM
- concentration at 24 h (50 mg, Patient 003 Dose 50 mg, 24 hr, read-out: Concentration): 19.5 µM
- concentration at 48 h (50 mg, Patient 003 Dose 50 mg, 48 hr): 18.1 µM
- concentration at 72 h (50 mg, Patient 003 Dose 50 mg, 72 hr): 18.4 µM
- concentration at 192 h (50 mg, Patient 003 Dose 50 mg, 192 hr (Day 8), read-out: Concentration): 8.6 µM
- concentration at 360 h (50 mg, Patient 003 Dose 50 mg, 360 hr (Day 15), read-out: Concentration): 7.2 µM
- concentration at 528 h (50 mg, Patient 003 Dose 50 mg, 528 hr (Day 22), read-out: Concentration): 6.5 µM
- concentration at 696 h (50 mg, Patient 003 Dose 50 mg, 696 hr (Day 29), read-out: Concentration): 5 µM
- concentration at 864 h (50 mg, Patient 003 Dose 50 mg, 864 hr (Day 36), read-out: Concentration): 6.5 µM
- concentration at 0 hr (50 mg, Patient 004 Dose 50 mg, 0 hr): 100 nM
- concentration at 2 hr (50 mg, Patient 004 Dose 50 mg, 2 hr, read-out: Concentration): 19.9 µM
- concentration at 4 hr (50 mg, Patient 004 Dose 50 mg, 4 hr, read-out: Concentration): 19.3 µM
- concentration at 24 hr (50 mg, Patient 004 Dose 50 mg, 24 hr (Day 2), read-out: Concentration): 14.4 µM
- concentration at 168 h [1]: 12.8 µM
- concentration at 170 h [1]: 35.7 µM
- concentration at 171 h [1]: 40.4 µM
- concentration at 172 h [1]: 36 µM
- concentration at 192 h (50 mg, Patient 004 Dose 50 mg, 192 hr (Day 9), read-out: Concentration): 22.5 µM
- concentration at 336 hr (50 mg, Patient 004 Dose 50 mg, 336 hr (Day 15), read-out: Concentration): 21.8 µM
- concentration at 338 hr (50 mg, Patient 004 Dose 50 mg, 338 hr, read-out: Concentration): 31.1 µM
- concentration at 339 hr (50 mg, Patient 004 Dose 50 mg, 339 hr, read-out: Concentration): 38.8 µM
- concentration at 340 hr (50 mg, Patient 004 Dose 50 mg, 340 hr, read-out: Concentration): 40.6 µM
- concentration at 360 hr (50 mg, Patient 004 Dose 50 mg, 360 hr (Day 16), read-out: Concentration): 38.8 µM
- concentration at 504 h (50 mg, Patient 004 Dose 50 mg, 504 hr (Day 22), read-out: Concentration): 33.4 µM
- concentration at 506 h (50 mg, Patient 004 Dose 50 mg, 506 hr, read-out: Concentration): 46.3 µM
- concentration at 507 h (50 mg, Patient 004 Dose 50 mg, 507 hr, read-out: Concentration): 50.4 µM
- concentration at 508 h (50 mg, Patient 004 Dose 50 mg, 508 hr, read-out: Concentration): 47.9 µM
- concentration at 528 h (50 mg, Patient 004 Dose 50 mg, 528 hr (Day 23), read-out: Concentration): 50 µM
- concentration at 672 hr (50 mg, Patient 004 Dose 50 mg, 672 hr (Day 29), read-out: Concentration): 52.3 µM
- concentration at 674 hr (50 mg, Patient 004 Dose 50 mg, 674 hr, read-out: Concentration): 65.8 µM
- concentration at 675 hr (50 mg, Patient 004 Dose 50 mg, 675 hr, read-out: Concentration): 61.7 µM
- concentration at 676 hr (50 mg, Patient 004 Dose 50 mg, 676 hr, read-out: Concentration): 56.7 µM
- concentration at 696 hr (50 mg, Patient 004 Dose 50 mg, 696 hr (Day 30), read-out: Concentration): 77.5 µM
- concentration at 840 h (50 mg, Patient 004 Dose 50 mg, 840 hr (Day 36), read-out: Concentration): 63 µM
- concentration at 842 h (50 mg, Patient 004 Dose 50 mg, 842 hr, read-out: Concentration): 78.6 µM
- concentration at 843 h (50 mg, Patient 004 Dose 50 mg, 843 hr, read-out: Concentration): 80.5 µM
- concentration at 864 h (50 mg, Patient 004 Dose 50 mg, 864 hr (Day 37), read-out: Concentration): 81.1 µM
- half-life (50 mg, after a single dose, 6 week sampling period, read-out: half-life of elimination): > 42 days
- concentration at 0 h (100 mg, Patient 005 Dose 100 mg, 0 hr): 230 nM
- concentration at 2 h (100 mg, Patient 005 Dose 100 mg, 2 hr, read-out: Concentration): 19.8 µM
- concentration at 3 h [2]: 23 µM
- concentration at 4 h (100 mg, Patient 005 Dose 100 mg, 4 hr, read-out: Concentration): 23.7 µM
- concentration at 24 h (100 mg, Patient 005 Dose 100 mg, 24 hr (Day 2), read-out: Concentration): 19.9 µM
- concentration at 168 h [2]: 19 µM
- concentration at 170 h [2]: 42.9 µM
- concentration at 171 h [2]: 50.8 µM
- concentration at 172 h [2]: 45.7 µM
- concentration at 192 h (100 mg, Patient 005 Dose 100 mg, 192 hr (Day 9), read-out: Concentration): 34.4 µM
- concentration at 336 h (100 mg, Patient 005 Dose 100 mg, 336 hr (Day 15), read-out: Concentration): 47.8 µM
- concentration at 338 h (100 mg, Patient 005 Dose 100 mg, 338 hr, read-out: Concentration): 80.2 µM
- concentration at 339 h (100 mg, Patient 005 Dose 100 mg, 339 hr, read-out: Concentration): 70.1 µM
- concentration at 340 h (100 mg, Patient 005 Dose 100 mg, 340 hr, read-out: Concentration): 53.9 µM
